Laboratory results from US10370436B2, “Anti-pseudomonas Psl binding molecules and uses thereof” (priority 2011, dated 2019).

Tests used:
[1] = system: P. aeruginosa PAO1.lux association with A549 cells; assay: Cell attachment assay, PAO1.lux to A549 cells; type: cell-based, Pseudomonas aeruginosa; details: MOI of 10, FIG. 4, FIG. 9B
Procedure: Anti-Psl antibodies were added to a confluent monolayer of A549 cells (an adenocarcinoma human alveolar basal epithelial cell line) grown in opaque 96-well plates (Nunc Nunclon Delta). Log-phase luminescent P. aeruginosa PAO1 strain (PAO1.lux) was added at an MOI of 10. After incubation of PAO1.lux with A549 cells at 37° C. for 1 hour, the A549 cells were washed, followed by addition of LB+0.5% glucose. Bacteria were quantified following a brief incubation at 37° C. as performed in the OPK assay described in Example 2. Measurements from wells without A549 cells were used to correct for non-specific binding.

[2] = system: P. aeruginosa 6077 (O11-cytotoxic); assay: P. aeruginosa corneal infection (keratitis) model; type: in vivo, mice; details: versus negative control-treated animals, 24 hours after infection
Procedure: FIG. 8 (A-G): Anti-Psl monoclonal antibodies Cam-003 and WapR-004 are active in a P. aeruginosa keratitis model and thermal injury model. Mice were treated with a control IgG1 antibody or Cam-003 at 45 mg/kg (A, B) or 15 mg/kg (C, D) or PBS or a control IgG1 antibody or Cam-003 at 45 mg/kg or WapR-004 at 45 mg/kg or 15 mg/kg or 5 mg/kg (F, G) 24 hours prior to infection with 6077 (O11-cytotoxic—2×10^6 CFU). Immediately before infection, three 1 mm scratches were made on the left cornea of each animal followed by topical application of P. aeruginosa in a 5 μl inoculum. 24 hours after infection, the corneal pathology scores were calculated followed by removal of the eye for determination of viable CFU. Differences in pathology scores and viable CFU were determined by the Mann-Whitney U-test. (A) P=0.0001, (B) P<0.0001, (C) P=0.0003, (D) P=0.0015. (F) and (G) Cam-003 (45 mg/kg) vs. WapR-004 (45 mg/kg): P=0.018; Cam-003 (45 mg/kg) vs. WapR-004 (15 mg/kg): P=0.0025; WapR-004 (45 mg/kg) vs. WapR-004 (15 mg/kg): P=0.1331; WapR-004 (5 mg/kg) vs. Ctrl: P<0.0001. Results are representative of five independent experiments. (E) Survival analysis from Cam-003 and R347 treated CF-1 mice in a P. aeruginosa thermal injury model after 6077 infection (2×10^5 CFU) (log-rank: R347 vs. Cam-003 15 mg/kg, P=0.0094; R347 vs. Cam-003 5 mg/kg, P=0.0017). […]

[3] = system: Psl on in vivo passaged P. aeruginosa strains; assay: Flow cytometry of in vivo passaged P. aeruginosa; type: binding, Pseudomonas aeruginosa
Excerpt: For IgG expression, the VH and VL chains of selected antibodies were cloned into human IgG1 expression vectors, co-expressed in HEK293 cells, and purified by protein A affinity chromatography as described (Persic, L., et al., Gene 187, 9-18 (1997)). Human IgG1 antibodies made with the variable regions from these selected serotype independent phage were confirmed for P. aeruginosa specificity and prioritized for subsequent analysis by whole cell binding to dominant clinically relevant serotypes by FACS analysis (FIG. 1F), since this method is more stringent than ELISA. For the flow cytometry based binding assays mid-log phase P. aeruginosa strains were concentrated in PBS to an OD650 of 2.0. After incubation of antibody (10 μg/mL) and bacteria (˜1×10^7 cells) for 1 hr at 4° C. with shaking, washed cells were incubated with an ALEXA FLUOR […] goat anti-human IgG antibody (Invitrogen, Carlsbad, Calif.) for 0.5 hr at 4° C. Washed cells were stained with BACLIGHT™ green bacterial stain as recommended (Invitrogen, Carlsbad, Calif.). Samples were run on a LSR II flow cytometer (BD Biosciences) and analyzed using BD FacsDiva (v. 6.1.3) and FlowJo (v. 9.2; TreeStar).
To test if Psl expression in vivo is maintained, mice were injected intraperitoneally with P. aeruginosa isolates followed by harvesting of bacteria by peritoneal lavage four hours post-infection. The presence of Psl was analyzed with a control antibody and Cam-003 by flow cytometry as conditions for antibody binding are more stringent and allow for quantification of cells that are positive or negative for Psl expression. For ex vivo binding, bacterial inocula (0.1 ml) was prepared from an overnight TSA plate and delivered intraperitoneally to BALB/c mice. At 4 hr. following challenge, bacteria were harvested, RBCs lysed, sonicated and resuspended in PBS supplemented with 0.1% Tween-20 and 1% BSA. Samples were stained and analyzed as previously described in Example 1. […] Within the inocula, Psl was not detected for strain 6077 and was minimally detected for strains PAO1 (O5) and 6206 (O11-cytotoxic).
The level of Psl expression/accessibility on the surface of P. aeruginosa strains PAO1 and 6206 in the acute pneumonia model was also assessed. Bacteria prepared from overnight-incubated, confluent plates, as described above, were intranasally administered to BALB/c mice. At 4 and 24 hours post-infection, bacteria were recovered from the lungs by bronchoalveolar lavage. Samples were stained and analyzed as previously described in Example 1.

Cam-003: human IgG1 anti-Psl monoclonal antibody, VH SEQ ID NO: 1 and VL SEQ ID NO: 2
inhibition of association of PAO1.lux to A549 cells [1]: most active at inhibiting P. aeruginosa cell attachment to A549 lung epithelial cells | bacterial counts in total eye homogenates [2]: reduced bacterial counts | corneal pathology ([2]; FIGS. 8A-D, F-G): significantly less pathology | staining of bacteria by flow cytometry ([3]; 6206, bronchoalveolar lavage 4 hours post-infection, FIG. 5D): minimal | staining of bacteria by flow cytometry ([3]; PAO1, bronchoalveolar lavage 4 hours post-infection, FIG. 5D): Strong Cam-003 staining | staining of bacteria by flow cytometry ([3]; PAO1 and 6206, bronchoalveolar lavage 24 hours post-infection, FIG. 5E): strong Cam-003 staining | reactivity by flow cytometry after in vivo passage ([3]; PAO1ΔpslA): unable to react with Cam-003 | staining of bacteria by flow cytometry ([3]; three wild type strains harvested by peritoneal lavage 4 hr after intraperitoneal challenge, FIG. 5C): strong Cam-003 staining
